Experimental data from PubChem BioAssay (NCI).
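A five-concentration, 48-hour dose response in 96-well plates underlies each endpoint, interpolated linearly between surrounding concentrations. GI50 is the concentration that inhibits growth by half. TGI: total growth inhibition.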

Tests used:
Assay in all cases: NCI anticancer screen, dose series, 48 h
CAKI-1 renal = system: CAKI-1 renal
UACC-62 melanoma = system: UACC-62 melanoma
A549 NSCLC = system: A549 NSCLC
T-47D breast = system: T-47D breast
OVCAR-3 ovarian = system: OVCAR-3 ovarian
NCI-H226 lung = system: NCI-H226 lung
A498 renal = system: A498 renal
UO-31 renal = system: UO-31 renal
HCC-2998 colon = system: HCC-2998 colon
SW-620 colon = system: SW-620 colon
CCRF-CEM leukemia = system: CCRF-CEM leukemia
SF-268 CNS = system: SF-268 CNS
TK-10 renal = system: TK-10 renal
SK-MEL-2 melanoma = system: SK-MEL-2 melanoma
MDA-MB-435 = system: MDA-MB-435
SK-MEL-28 melanoma = system: SK-MEL-28 melanoma
ACHN renal = system: ACHN renal
SR leukemia = system: SR leukemia
OVCAR-8 ovarian = system: OVCAR-8 ovarian
NCI/ADR-RES ovarian = system: NCI/ADR-RES ovarian
LOX IMVI melanoma = system: LOX IMVI melanoma
BT-549 breast = system: BT-549 breast
SK-MEL-5 melanoma = system: SK-MEL-5 melanoma
HS 578T breast = system: HS 578T breast
SK-OV-3 ovarian = system: SK-OV-3 ovarian
NCI-H460 lung = system: NCI-H460 lung
NCI-H23 lung = system: NCI-H23 lung
COLO 205 colon = system: COLO 205 colon
SN12C renal = system: SN12C renal
RXF 393 renal = system: RXF 393 renal
HCT-15 colon = system: HCT-15 colon
MALME-3M melanoma = system: MALME-3M melanoma
HT29 colon = system: HT29 colon
HOP-62 NSCLC = system: HOP-62 NSCLC
M14 melanoma = system: M14 melanoma
HOP-92 NSCLC = system: HOP-92 NSCLC
NCI-H522 lung = system: NCI-H522 lung
PC-3 prostate = system: PC-3 prostate
IGROV1 ovarian = system: IGROV1 ovarian
U251 CNS = system: U251 CNS
HCT-116 colon = system: HCT-116 colon
SNB-75 CNS = system: SNB-75 CNS
SF-295 CNS = system: SF-295 CNS
MOLT-4 leukemia = system: MOLT-4 leukemia
HL-60(TB) leukemia = system: HL-60(TB) leukemia
KM12 colon = system: KM12 colon
K-562 leukemia = system: K-562 leukemia
SF-539 CNS = system: SF-539 CNS
RPMI-8226 leukemia = system: RPMI-8226 leukemia
DU-145 prostate = system: DU-145 prostate
OVCAR-4 ovarian = system: OVCAR-4 ovarian
EKVX NSCLC = system: EKVX NSCLC
MCF7 breast = system: MCF7 breast
SNB-19 CNS = system: SNB-19 CNS
786-0 renal = system: 786-0 renal
MDA-MB-231 breast = system: MDA-MB-231 breast
OVCAR-5 ovarian = system: OVCAR-5 ovarian
UACC-257 melanoma = system: UACC-257 melanoma

Structure (SMILES): O=C(Nc1nc2ccc(F)cc2s1)c1cccnc1Nc1ccc(Cl)cc1Cl
- GI50 (CAKI-1 renal): 1.91 µM
- TGI (CAKI-1 renal): 8.71 µM
- GI50 (UACC-62 melanoma): 2.57 µM
- TGI (UACC-62 melanoma): 17.2 µM
- GI50 (A549 NSCLC): 3.51 µM
- TGI (A549 NSCLC): 16.1 µM
- GI50 (T-47D breast): 1.61 µM
- TGI (T-47D breast): 8.01 µM
- GI50 (OVCAR-3 ovarian): 2.18 µM
- TGI (OVCAR-3 ovarian): 7.1 µM
- GI50 (NCI-H226 lung): 2.72 µM
- TGI (NCI-H226 lung): 19.3 µM
- GI50 (A498 renal): 2.13 µM
- TGI (A498 renal): 6.84 µM
- GI50 (UO-31 renal): 2.21 µM
- TGI (UO-31 renal): > 24.4 µM
- GI50 (HCC-2998 colon): 4.09 µM
- TGI (HCC-2998 colon): 18.3 µM
- GI50 (SW-620 colon): 3.04 µM
- TGI (SW-620 colon): 15.1 µM
- GI50 (CCRF-CEM leukemia): 1.82 µM
- TGI (CCRF-CEM leukemia): 12.6 µM
- GI50 (SF-268 CNS): 3.34 µM
- TGI (SF-268 CNS): 16.3 µM
- GI50 (TK-10 renal): 3.53 µM
- TGI (TK-10 renal): 19.1 µM
- GI50 (SK-MEL-2 melanoma): 3.3 µM
- TGI (SK-MEL-2 melanoma): > 26.2 µM
- GI50 (MDA-MB-435): 3.04 µM
- TGI (MDA-MB-435): 14.3 µM
- GI50 (SK-MEL-28 melanoma): 3.69 µM
- TGI (SK-MEL-28 melanoma): 18.6 µM
- GI50 (ACHN renal): 3.35 µM
- TGI (ACHN renal): 13.7 µM
- GI50 (SR leukemia): 2.22 µM
- TGI (SR leukemia): 8.23 µM
- GI50 (OVCAR-8 ovarian): 3.43 µM
- TGI (OVCAR-8 ovarian): 22.8 µM
- GI50 (NCI/ADR-RES ovarian): 2.59 µM
- TGI (NCI/ADR-RES ovarian): 10.5 µM
- GI50 (LOX IMVI melanoma): 3.62 µM
- TGI (LOX IMVI melanoma): 14.6 µM
- GI50 (BT-549 breast): 2.97 µM
- TGI (BT-549 breast): 17.5 µM
- GI50 (SK-MEL-5 melanoma): 1.87 µM
- TGI (SK-MEL-5 melanoma): 6.11 µM
- GI50 (HS 578T breast): 2.92 µM
- TGI (HS 578T breast): 19.7 µM
- GI50 (SK-OV-3 ovarian): 2.26 µM
- TGI (SK-OV-3 ovarian): 7.38 µM
- GI50 (NCI-H460 lung): 2.67 µM
- TGI (NCI-H460 lung): 12.4 µM
- GI50 (NCI-H23 lung): 2.28 µM
- TGI (NCI-H23 lung): 9.56 µM
- GI50 (COLO 205 colon): 1.72 µM
- TGI (COLO 205 colon): 3.81 µM
- GI50 (SN12C renal): 2.65 µM
- TGI (SN12C renal): 13.7 µM
- GI50 (RXF 393 renal): 3.31 µM
- TGI (RXF 393 renal): 11.7 µM
- GI50 (HCT-15 colon): 3.35 µM
- TGI (HCT-15 colon): 20.3 µM
- GI50 (MALME-3M melanoma): 2.19 µM
- TGI (MALME-3M melanoma): 12.1 µM
- GI50 (HT29 colon): 2.05 µM
- TGI (HT29 colon): 9.75 µM
- GI50 (HOP-62 NSCLC): 3.05 µM
- TGI (HOP-62 NSCLC): 12.8 µM
- GI50 (M14 melanoma): 3.18 µM
- TGI (M14 melanoma): 14.6 µM
- GI50 (HOP-92 NSCLC): 1.4 µM
- TGI (HOP-92 NSCLC): 5.15 µM
- GI50 (NCI-H522 lung): 2.53 µM
- TGI (NCI-H522 lung): > 25.6 µM
- GI50 (PC-3 prostate): 2.21 µM
- TGI (PC-3 prostate): 9.45 µM
- GI50 (IGROV1 ovarian): 3.66 µM
- TGI (IGROV1 ovarian): > 23.6 µM
- GI50 (U251 CNS): 2.92 µM
- TGI (U251 CNS): 12 µM
- GI50 (HCT-116 colon): 2.07 µM
- TGI (HCT-116 colon): 8.01 µM
- GI50 (SNB-75 CNS): 1.96 µM
- TGI (SNB-75 CNS): 9.14 µM
- GI50 (SF-295 CNS): 1.93 µM
- TGI (SF-295 CNS): 8.02 µM
- GI50 (MOLT-4 leukemia): 2.35 µM
- TGI (MOLT-4 leukemia): 17.3 µM
- GI50 (HL-60(TB) leukemia): 2 µM
- TGI (HL-60(TB) leukemia): 5.7 µM
- GI50 (KM12 colon): 2.78 µM
- TGI (KM12 colon): 9.54 µM
- GI50 (K-562 leukemia): 1.93 µM
- TGI (K-562 leukemia): 9.26 µM
- GI50 (SF-539 CNS): 4.15 µM
- TGI (SF-539 CNS): 15.3 µM
- GI50 (RPMI-8226 leukemia): 1.49 µM
- TGI (RPMI-8226 leukemia): 9.07 µM
- GI50 (DU-145 prostate): 3.22 µM
- TGI (DU-145 prostate): 13.4 µM
- GI50 (OVCAR-4 ovarian): 1.57 µM
- TGI (OVCAR-4 ovarian): > 44.5 µM
- GI50 (EKVX NSCLC): 2.02 µM
- TGI (EKVX NSCLC): 16 µM
- GI50 (MCF7 breast): 2.73 µM
- TGI (MCF7 breast): 13 µM
- GI50 (SNB-19 CNS): 3.22 µM
- TGI (SNB-19 CNS): 14.7 µM
- GI50 (786-0 renal): 3.28 µM
- TGI (786-0 renal): 12.2 µM
- GI50 (MDA-MB-231 breast): 3.11 µM
- TGI (MDA-MB-231 breast): 14.4 µM
- GI50 (OVCAR-5 ovarian): 7.71 µM
- TGI (OVCAR-5 ovarian): 28.9 µM
- GI50 (UACC-257 melanoma): 0.753 µM
- TGI (UACC-257 melanoma): 7.73 µM
